The compounds below were run against T1, Nuclear factor erythroid 2-related factor 2 (Homo sapiens, UniProt Q16236) (assay: Activation of Nrf2 in human IMR-32-ARE-Luc cells by Bright-Glo luciferase assay).
T1 sequence (Q16236 whole entry): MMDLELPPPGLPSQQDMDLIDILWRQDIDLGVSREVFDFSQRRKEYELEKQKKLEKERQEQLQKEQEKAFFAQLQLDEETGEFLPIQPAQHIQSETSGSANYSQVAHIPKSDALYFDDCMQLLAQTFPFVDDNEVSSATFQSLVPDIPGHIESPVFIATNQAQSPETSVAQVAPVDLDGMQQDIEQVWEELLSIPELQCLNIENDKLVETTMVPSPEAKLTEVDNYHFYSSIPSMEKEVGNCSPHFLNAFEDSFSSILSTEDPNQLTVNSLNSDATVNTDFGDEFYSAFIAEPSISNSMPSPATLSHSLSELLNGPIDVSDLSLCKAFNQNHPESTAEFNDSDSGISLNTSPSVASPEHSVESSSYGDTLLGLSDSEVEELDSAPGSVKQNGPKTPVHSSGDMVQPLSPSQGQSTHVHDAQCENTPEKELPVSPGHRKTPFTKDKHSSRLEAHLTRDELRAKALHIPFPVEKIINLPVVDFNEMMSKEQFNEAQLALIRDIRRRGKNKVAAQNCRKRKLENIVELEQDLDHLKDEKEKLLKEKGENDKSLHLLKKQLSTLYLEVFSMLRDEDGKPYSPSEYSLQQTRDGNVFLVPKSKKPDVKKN
CC(C)CN[C@H]1CS(=O)(=O)C[C@@H]1C(=O)Nc1ccc(Cl)c(Cl)c1 gave an EC50 greater than 20 µM.
Compound O=C(O)CCCN[C@H]1CS(=O)(=O)C[C@@H]1S(=O)(=O)c1ccc(Cl)c(Cl)c1 has an EC50 greater than 20 µM.
Compound O=C(O)CCCCCN[C@H]1CS(=O)(=O)C[C@@H]1S(=O)(=O)c1ccc(Cl)c(Cl)c1 has an EC50 greater than 20 µM.
